For the assay, the target named is human NAMPT enzyme (His-hNAMPT) (Homo sapiens (Human), UniProt P43490). Nature of the assay: NAMPT enzymatic inhibition assay (fluorescence, NADH product). The assay is classed as biochemical. As to the method: The compounds were then diluted 20 fold in an intermediate dilution to 5% DMSO and water. Finally 10 μL of each compound was added to the assay plate, in duplicate, with highest concentration at 30 μM and the lowest at 0.001 μM in a final volume of 50 μL and 1% DMSO concentration. Each assay also tested, in parallel, two reference compounds, FK866 and GMX1778, with highest concentration at 10 μM and lowest at 0.0003 μM. 200 ng of human NAMPT enzyme (His-hNAMPT obtained from E. coli expression system) diluted in […] (tris-buffered saline-Polysorbate 20) 1× was added to each well in a volume of 10 μL and the compounds were incubated with the enzyme at room temperature for 20 minutes. After the incubation, 30 μL of master mixture were added to each well. The master mixture contained: 50 mM Tris-HCl, pH 8.0, 12.5 mM MgCl2, 20 μM nicotinamide, 40 μM phosphoribosyl pyrophosphate (PRPP), 20 μM adenosine triphosphate (ATP), 30 μg/mL of alcohol dehydrogenase, 10 μg/mL of NMNAT, 1.5% alcohol, 1 mM dithiothreitol (DTT), 0.02% bovine serum albumin (BSA), 0.01% Tween 20. The reaction was performed at 30° C. for 60 minutes. Fluorescence intensity was measured at an excitation of 340 nm and an emission of 460 nm using a Tecan Infinite M1000 microplate reader. The fluorescence values indicated increase of NADH product.
Sequence of human NAMPT enzyme (His-hNAMPT) (P43490 whole entry): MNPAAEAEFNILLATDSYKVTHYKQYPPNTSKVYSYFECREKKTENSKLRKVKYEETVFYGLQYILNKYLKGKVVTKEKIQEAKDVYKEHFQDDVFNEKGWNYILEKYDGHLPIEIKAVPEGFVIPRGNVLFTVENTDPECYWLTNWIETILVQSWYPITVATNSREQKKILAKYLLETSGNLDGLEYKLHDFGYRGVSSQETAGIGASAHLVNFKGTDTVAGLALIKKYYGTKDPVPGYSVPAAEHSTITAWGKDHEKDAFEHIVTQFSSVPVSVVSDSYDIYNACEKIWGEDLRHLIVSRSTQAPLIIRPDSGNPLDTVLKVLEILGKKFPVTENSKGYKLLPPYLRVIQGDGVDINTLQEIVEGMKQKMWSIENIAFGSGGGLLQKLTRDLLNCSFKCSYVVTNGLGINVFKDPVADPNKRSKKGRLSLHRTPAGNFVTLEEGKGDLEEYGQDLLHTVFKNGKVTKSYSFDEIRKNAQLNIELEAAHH
Enzyme activity assay was performed in duplicate at each concentration. The fluorescence data was analyzed and compared. In the absence of the compound, the intensity (Ce) in each data set was defined as 100% activity. In the absence of enzyme, the intensity (C0) in each data set was defined as 0% activity. The percent activity in the presence of each compound was calculated according to the following equation: % activity=(C−C0)/(Ce−C0), where C is the fluorescence in the presence of the compound.
The % activity vs. compound concentrations were then plotted using non-linear regression analysis of Sigmoidal dose-response curve generated with the equation Y=B+(T−B)/1+10^((Log EC50-X)×Hill Slope), where Y is percent activity, B is minimum percent activity, T is maximum percent activity, X is logarithm of compound and Hill Slope=slope factor or Hill coefficient.

[1] abbreviates: [BPS], read-out: NAMPT IC50 (μM) [BPS].
Where [2] appears, read: [HDB], read-out: NAMPT IC50 (μM) [HDB].

The text below walks through data of patent US12421210B2, “Fused bicyclic heterocycles as therapeutic agents” (NEW YORK UNIVERSITY, priority 2018, dated 2025).

The structures appear in SMILES notation. Like-named read-outs stand apart in the source and are kept apart here.

In the case of `CC1(OC(=O)N2C[C@@H]3[C@@H](CCNC(=O)C4C[C@@H]4c4cccnc4)[C@@H]3C2)COC1` (mixture of isomers) [Example 53, (1R,5S,6s)-3-methyloxetan-3-yl 6-(2-((1S,2S)-2-(pyridin-3-yl)cyclopropanecarboxamido)ethyl)-3-azabicyclo[3.1.0]hexane-3-carboxylate and (1R,5S,6s)-3-methyloxetan-3-yl 6-(2-((1R,2R)-2-(pyridin-3-yl)cyclopropanecarboxamido)ethyl)-3-azabicyclo[3.1.0]hexane-3-carboxylate], under setting [1], the IC50 (in general, the concentration that inhibits the measured activity by half) lay within 0.01 to 0.49 µM. `O=C(/C=C/c1cccnc1)NCC[C@@H]1[C@H]2CN(c3ccc(F)cc3)C(=O)[C@@H]12` (mixture of isomers) [Example 264, (E)-N-(2-((1R,5S,6S)-3-(4-fluorophenyl)-2-oxo-3-azabicyclo[3.1.0]hexan-6-yl)ethyl)-3-(pyridin-3-yl)acrylamide and (E)-N-(2-((1S,5R,6R)-3-(4-fluorophenyl)-2-oxo-3-azabicyclo[3.1.0]hexan-6-yl)ethyl)-3-(pyridin-3-yl)acrylamide]: the IC50 under setting [2] lay within 0.01 to 0.49 µM. With `O=C(/C=C/c1cccnc1)NCC[C@H]1[C@@H]2CN(c3ccccc3)C(=O)[C@H]12` (racemic) [Example 256 racemic, (E)-N-(2-((1R,5S,6S)-2-oxo-3-phenyl-3-azabicyclo[3.1.0]hexan-6-yl)ethyl)-3-(pyridin-3-yl)acrylamide and (E)-N-(2-((1S,5R,6R)-2-oxo-3-phenyl-3-azabicyclo[3.1.0]hexan-6-yl)ethyl)-3-(pyridin-3-yl)acrylamide], the IC50 runs as follows: under setting [1], 0.01 to 0.49 µM; under setting [2], 0.01 to 0.49 µM.

On to `O=C(/C=C/c1cccnc1)NCC[C@@H]1[C@H]2CN(Cc3ccccc3)C(=O)[C@@H]12` (racemic) [Example 257, (E)-N-(2-((1R,5S,6S)-3-benzyl-2-oxo-3-azabicyclo[3.1.0]hexan-6-yl)ethyl)-3-(pyridin-3-yl)acrylamide and (E)-N-(2-((1S,5R,6R)-3-benzyl-2-oxo-3-azabicyclo[3.1.0]hexan-6-yl)ethyl)-3-(pyridin-3-yl)acrylamide], for which, under setting [1], the IC50 was 0.01 to 0.49 µM. As to `Nc1ccc(/C=C/C(=O)NCC[C@@H]2[C@H]3CN(Cc4ccccc4)C(=O)[C@@H]23)cn1` (racemic) [Example 258, (E)-3-(6-aminopyridin-3-yl)-N-(2-((1R,5S,6S)-3-benzyl-2-oxo-3-azabicyclo[3.1.0]hexan-6-yl)ethyl)acrylamide and (E)-3-(6-aminopyridin-3-yl)-N-(2-((1S,5R,6R)-3-benzyl-2-oxo-3-azabicyclo[3.1.0]hexan-6-yl)ethyl)acrylamide], the IC50 under setting [1] lay in the range of 0.01 to 0.49 µM. Consider `Nc1ccc(/C=C/C(=O)NCC[C@@H]2[C@H]3CN(c4ccccc4)C(=O)[C@@H]23)cn1` (racemic) [Example 259, (E)-3-(6-aminopyridin-3-yl)-N-(2-((1S,5R,6R)-2-oxo-3-phenyl-3-azabicyclo[3.1.0]hexan-6-yl)ethyl)acrylamide and (E)-3-(6-aminopyridin-3-yl)-N-(2-((1R,5S,6S)-2-oxo-3-phenyl-3-azabicyclo[3.1.0]hexan-6-yl)ethyl)acrylamide], for which the concentration for half-maximal inhibition (IC50) under setting [1] was 0.01 to 0.49 µM. Still for that read-out and setting: the value for `O=C(NCC[C@@H]1[C@H]2CN(c3ccccc3)C(=O)[C@@H]12)c1cc2ccncc2o1` (racemic) [Example 260, N-(2-((1R,5S,6S)-2-oxo-3-phenyl-3-azabicyclo[3.1.0]hexan-6-yl)ethyl)furo[2,3-c]pyridine-2-carboxamide and N-(2-((1S,5R,6R)-2-oxo-3-phenyl-3-azabicyclo[3.1.0]hexan-6-yl)ethyl)furo[2,3-c]pyridine-2-carboxamide] was 0.5 to 0.99 µM. With `O=C(/C=C/c1cccnc1)NCC[C@@H]1[C@H]2CN(c3cccc(C(F)(F)F)c3)C(=O)[C@@H]12` (racemic) [Example 262, (E)-N-(2-((1R,5S,6S)-2-oxo-3-(3-(trifluoromethyl)phenyl)-3-azabicyclo[3.1.0]hexan-6-yl)ethyl)-3-(pyridin-3-yl)acrylamide and (E)-N-(2-((1S,5R,6R)-2-oxo-3-(3-(trifluoromethyl)phenyl)-3-azabicyclo[3.1.0]hexan-6-yl)ethyl)-3-(pyridin-3-yl)acrylamide], the IC50 under setting [2] was in the range of 0.01 to 0.49 µM. On the same count and under the same terms, the value for `Nc1ccc(/C=C/C(=O)NCC[C@@H]2[C@H]3CN(c4cccc(C(F)(F)F)c4)C(=O)[C@@H]23)cn1` (racemic) [Example 263, (E)-3-(6-aminopyridin-3-yl)-N-(2-((1R,5S,6S)-2-oxo-3-(3-(trifluoromethyl)phenyl)-3-azabicyclo[3.1.0]hexan-6-yl)ethyl)acrylamide and (E)-3-(6-aminopyridin-3-yl)-N-(2-((1S,5R,6R)-2-oxo-3-(3-(trifluoromethyl)phenyl)-3-azabicyclo[3.1.0]hexan-6-yl)ethyl)acrylamide] was 0.01 to 0.49 µM; that for `O=C(NCC[C@@H]1[C@H]2CN(c3ccc(F)cc3)C(=O)[C@@H]12)N1Cc2ccccc2C1` (racemic) [Example 266, N-(2-((1R,5S,6S)-3-(4-fluorophenyl)-2-oxo-3-azabicyclo[3.1.0]hexan-6-yl)ethyl)isoindoline-2-carboxamide and N-(2-((1S,5R,6R)-3-(4-fluorophenyl)-2-oxo-3-azabicyclo[3.1.0]hexan-6-yl)ethyl)isoindoline-2-carboxamide] was 0.01 to 0.49 µM; that for `O=C(NCC[C@H]1[C@@H]2CN(c3ccccc3)C(=O)[C@H]12)c1cc(-c2cccnc2)on1` (stereo in doubt) [Example 261, N-(2-((1R,5S,6S)-2-oxo-3-phenyl-3-azabicyclo[3.1.0]hexan-6-yl)ethyl)-5-(pyridin-3-yl)isoxazole-3-carboxamide/N-(2-((1S,5R,6R)-2-oxo-3-phenyl-3-azabicyclo[3.1.0]hexan-6-yl)ethyl)-5-(pyridin-3-yl)isoxazole-3-carboxamide] was 0.01 to 0.49 µM. As to `O=C(NCC[C@H]1[C@@H]2CN(c3ccc(F)cc3)C(=O)[C@H]12)c1cc(-c2cccnc2)on1` (stereo in doubt) [Example 265, N-(2-((1R,5,6S)-3-(4-fluorophenyl)-2-oxo-3-azabicyclo[3.1.0]hexan-6-yl)ethyl)-5-(pyridin-3-yl)isoxazole-3-carboxamide and N-(2-((1S,5R,6R)-3-(4-fluorophenyl)-2-oxo-3-azabicyclo[3.1.0]hexan-6-yl)ethyl)-5-(pyridin-3-yl)isoxazole-3-carboxamide], the IC50 under setting [2] lay in the range of 0.01 to 0.49 µM. Take `CC(C)(C)OC(=O)N1C[C@H]2CCC(CNC(=O)NCc3cccnc3)C[C@H]2C1` (stereo in doubt) [Example 269, tert-butyl 5-((3-(pyridin-3-ylmethyl)ureido)methyl)hexahydro-1H-isoindole-2(3H)-carboxylate]: the IC50 under setting [1] was in the range of 1 to 29 µM. Turning to `CC(C)(C)OC(=O)N1C[C@H]2CCC(CNC(=O)N3Cc4ccncc4C3)C[C@H]2C1` (stereo in doubt) [Example 270, tert-butyl 5-((2,3-dihydro-1H-pyrrolo[3,4-c]pyridine-2-carboxamido)methyl)hexahydro-1H-isoindole-2(3H)-carboxylate], under setting [1], the IC50 is 0.01 to 0.49 µM. On to `CC(C)(C)OC(=O)N1C[C@@H]2[C@@H](CCNC(=O)/C=C/c3cccnc3)[C@@H]2C1` [Example 1, (1R,5S,6s)-tert-butyl 6-(2-((E)-3-(pyridin-3-yl)acrylamido)ethyl)-3-azabicyclo[3.1.0]hexane-3-carboxylate], for which, under setting [1], the IC50 is under 0.01 µM. Still for that read-out and setting: the value for `CC(C)(C)OC(=O)N1C[C@@H]2[C@@H](CCNC(=O)COc3cccnc3)[C@@H]2C1` [Example 2, (1R,5S,6s)-tert-butyl 6-(2-(2-(pyridin-3-yloxy)acetamido)ethyl)-3-azabicyclo[3.1.0]hexane-3-carboxylate] was 0.01 to 0.49 µM. Consider `CC(C)(C)OC(=O)N1C[C@@H]2[C@@H](CCNC(=O)c3cc4ccncc4s3)[C@@H]2C1` [Example 3], for which the IC50 under setting [1] was in the range of 0.01 to 0.49 µM. On to `CC(C)(C)OC(=O)N1C[C@@H]2[C@@H](CCNC(=O)/C=C/c3ccc(N)nc3)[C@@H]2C1` [Example 4, (1R,5S,6s)-tert-butyl 6-(2-((E)-3-(6-aminopyridin-3-yl)acrylamido)ethyl)-3-azabicyclo[3.1.0]hexane-3-carboxylate], for which, under setting [1], the IC50 is 0.01 to 0.49 µM. Regarding `CC(C)(C)OC(=O)N1C[C@@H]2[C@@H](CCNC(=O)c3cc4ccncc4o3)[C@@H]2C1` [Example 5], under setting [1], the IC50 was in the range of 0.01 to 0.49 µM. Turning to `CC(C)(C)OC(=O)N1C[C@@H]2[C@@H](CCNC(=O)c3ccc4sccc4c3)[C@@H]2C1` [Example 6, (1R,5S,65s)-tert-butyl 6-(2-(benzo[b]thiophene-5-carboxamido)ethyl)-3-azabicyclo[3.1.0]hexane-3-carboxylate], the IC50 under setting [1] lay within 0.01 to 0.49 µM.
